Measured values reported in patent US20230104936A1, “TRPML MODULATORS” (Casma Therapeutics, Inc., priority 2019, published 2023).

Test system: TFEB
Experiment: TFEB nuclear translocation assay, HeLa wt cells
Type: cell-based
Conditions: 2 hrs compound treatment, Table 1 does not say HeLa wt or TRPML1 KO
Description: For the TFEB nuclear translocation assay, HeLa wt or HeLa TRPML1 KO cells were plated at 2700 cells/well into black-walled, 384-well Cell carrier Ultra tissue culture treated plates in complete media and incubated overnight. The next day, cells are treated for 2 hrs with compounds and incubated at 37° C. Cells were then fixed for 30 minutes at room temperature in 4% final PFA and washed five times with 90 μL PBS. PBS is aspirated from the wells and the cells are blocked with 7.5 μL blocking buffer (1:1 PBS/Odyssey block buffer containing 0.1% triton x-100 and 1% goat serum). After 30-60 minutes of block, 7.5 μL of primary anti-TFEB (rabbit) antibody is added for a final dilution of 1:200 antibody in 15 μL blocking buffer. Plates are incubated overnight at 4° C. The following day, plates are washed again into PBS, 90 μL with 5 washes, all PBS is aspirated from the wells and the cells are incubated for 1 hr in 1:1000 goat-anti rabbit Alexa 488 secondary antibody, also containing 10 μg/mL Hoechst 33342. After the 1 hr room temperature incubation, plates are washed a final time into PBS, sealed with foil and imaged with an automated epifluorescence microscopy (PerkinElmer Operetta CLS). Four different fields were imaged per well using ×20 magnification for DAPI and FITC filter sets. Images were quantified using PerkinElmer Harmony software, briefly: apply flatfield correction (basic/advanced) for input images. Use the Find Nuclei building block with channel set at Hoechst to find the nuclei. Use the Find cytoplasm building block with channel set to Alexa 488 to find the cytoplasm. Use select cell region with Channel set at Alexa 488 and region of interest as Nuclei and define outer border at 0 μm and inner at 45 μm to cover complete nuclei. Use select cell region with Channel set at Alexa 488 and region of interest as ring region and define outer border at −5 μm and inner at 0 μm to define a ring around the nucleus. Use the find calculate intensity parameter to calculate intensity of the nuclear region and the ring region. Define results as Number of nuclei and ratio of A/B where A is Intensity of Nuclei and B is intensity of the ring region.
The compound numbers correspond to the compound numbers above in Tables A or B. Compounds having an activity designated as “++++” provided an AC50 of ≤2.00 μM; compounds having an activity designated as “+++” provided an AC50 of 2.01-8.00 μM; compounds having an activity designated as “++” provided an AC50 of 8.01-9.99 μM; and compounds having an activity designated as “+” provided an AC50 of ≥10.00 μM.

| Compound | AC50 (Homo sapiens, HeLa, 2 h) [nM] | AC50 [nM] |
| --- | --- | --- |
| COc1ccc(S(=O)(=O)Nc2ccccc2N2CCN(C(C)C(F)(F)F)CC2)cc1 (stereo not drawn) [Compound A-531, 4-methoxy-N-{2-[4-(1,1,1-trifluoropropan-2-yl)piperazin-1-yl]phenyl}benzene-1-sulfonamide] | ≤ 2000 | – |
| Cc1cc(Cl)c(N2CCOCC2)c(NS(=O)(=O)c2ccc3c(c2)CCC3)c1 [Compound A-887, N-[3-chloro-5-methyl-2-(morpholin-4-yl)phenyl]-2,3-dihydro-1H-indene-5-sulfonamide] | ≤ 2000 | – |
| C[C@@H]1CN(C(=O)C2CCN(c3ccccc3NS(=O)(=O)c3ccc(S(=O)(=O)N(C)C)cc3)CC2)C[C@H](C)O1 [Compound A-754, N4-(2-{4-[(2R,6S)-2,6-dimethylmorpholine-4-carbonyl]piperidin-1-yl}phenyl)-N1,N1-dimethylbenzene-1,4-disulfonamide] | 2010 to 8000 | – |
| CN1CCC2(CCN(c3ccccc3NS(=O)(=O)c3ccc(S(=O)(=O)N(C)C)cc3)CC2)C1=O [Compound A-244, N1,N1-dimethyl-N4-(2-{2-methyl-1-oxo-2,8-diazaspiro[4.5]decan-8-yl}phenyl)benzene-1,4-disulfonamide] | ≥ 10000 | – |
| CC(c1cccc(F)c1N1CCC(COC(C)(C)C)CC1)S(=O)(=O)c1ccc(S(=N)(=O)N(C)C)cc1 (single isomer, unassigned) [Compound A-961, 4-((1-(2-(4-(tert-butoxymethyl)piperidin-1-yl)-3-fluorophenyl)ethyl)sulfonyl)-N,N-dimethylbenzenesulfonimidamide] | – | ≥ 10000 |
| COCCCC1CCN(c2ccccc2NS(=O)(=O)c2ccc(S(=O)(=O)N(C)C)cc2)CC1 [Compound A-496, N4-{2-[4-(3-methoxypropyl)piperidin-1-yl]phenyl}-N1,N1-dimethylbenzene-1,4-disulfonamide] | ≤ 2000 | – |
| CN(C)S(=O)(=O)c1ccc(C(C)(C)Nc2ccccc2N2CCN(Cc3ccccc3)CC2)cc1 [Compound A-733, 4-(2-{[2-(4-benzylpiperazin-1-yl)phenyl]amino}propan-2-yl)-N,N-dimethylbenzene-1-sulfonamide] | 2010 to 8000 | – |
| CC(c1cccc(F)c1N1CCC(COC(C)(C)C)CC1)S(=O)(=O)c1ccc(C(F)F)cc1 (single isomer, unassigned) [Compound A-976, 4-(tert-butoxymethyl)-1-(2-(1-((4-(difluoromethyl)phenyl)sulfonyl)ethyl)-6-fluorophenyl)piperidine] | ≤ 2000 | – |
| CC(c1cccc(F)c1N1CCC(CN2C[C@H]3C[C@@H](C2)O3)CC1)S(=O)(=O)c1ccc(S(=O)(=O)N(C)C)cc1 (single isomer, unassigned) [Compound A-848] | ≤ 2000 | – |
| CC(C)(C)C(=O)N1CCN(c2ccccc2NS(=O)(=O)c2ccc(CC(F)(F)F)cc2)CC1 [Compound A-567, N-{2-[4-(2,2-dimethylpropanoyl)piperazin-1-yl]phenyl}-4-(2,2,2-trifluoroethyl)benzene-1-sulfonamide] | ≥ 10000 | – |
| CN(C)S(=O)(=O)c1ccc(S(=O)(=O)Nc2nc(C3CCN(c4ccc(Cl)cc4F)CC3)cn2C)cc1 [Compound A-84, N4-{4-[1-(4-chloro-2-fluorophenyl)piperidin-4-yl]-1-methyl-1H-imidazol-2-yl}-N1,N1-dimethylbenzene-1,4-disulfonamide] | ≥ 10000 | – |
| CC(c1ccccc1N1CCN(C(=O)OCc2ccccc2)CC1)S(=O)(=O)c1ccc(S(=O)(=O)N(C)C)cc1 (stereo not drawn) [Compound A-556, benzyl 4-(2-{1-[4-(dimethylsulfamoyl)benzenesulfonyl]ethyl}phenyl)piperazine-1-carboxylate] | ≤ 2000 | – |
| CN(C)S(=O)(=O)c1ccc(S(=O)(=O)Nc2ccccc2N2CCN(CC(F)(F)C(F)F)CC2)cc1 [Compound A-551, N1,N1-dimethyl-N4-{2-[4-(2,2,3,3-tetrafluoropropyl)piperazin-1-yl]phenyl}benzene-1,4-disulfonamide] | ≤ 2000 | – |
| CC(c1cccc(C#N)c1N1CCC(CN2C[C@@H](C)O[C@@H](C)C2)CC1)S(=O)(=O)c1ccc(S(=O)(=O)N(C)C)cc1 (stereo partly drawn) [Compound A-842, 4-((1-(3-cyano-2-(4-((2,6-dimethylmorpholino)methyl)piperidin-1-yl)phenyl)ethyl)sulfonyl)-N,N-dimethylbenzenesulfonamide] | ≤ 2000 | – |
| CC(c1cccnc1N1CCC2(CC1)COC(C)(C)C2)S(=O)(=O)c1ccc(S(=O)(=O)N(C)C)cc1 (stereo not drawn) [Compound A-775, 4-[1-(2-{3,3-dimethyl-2-oxa-8-azaspiro[4.5]decan-8-yl}pyridin-3-yl)ethanesulfonyl]-N,N-dimethylbenzene-1-sulfonamide] | 8010 to 9990 | – |
| CC1(C)CC2(CCN(c3ccccc3NS(=O)(=O)c3ccc4c(c3)CCOC4)CC2)CO1 [Compound A-726, N-(2-{3,3-dimethyl-2-oxa-8-azaspiro[4.5]decan-8-yl}phenyl)-3,4-dihydro-1H-2-benzopyran-6-sulfonamide] | 2010 to 8000 | – |
| C[C@H]1COC[C@H](C)N1CC1CCN(c2c(F)cccc2NS(=O)(=O)c2ccc(S(=N)(=O)N(C)C)cc2)CC1 (single isomer, unassigned) [Compound A-833] | ≤ 2000 | – |
| CC(c1cccc(F)c1N1CCC(CN2CCC(F)(F)C2)CC1)S(=O)(=O)c1ccc(S(=O)(=O)N(C)C)cc1 (stereo not drawn) [Compound A-806, 4-((1-(2-(4-((3,3-difluoropyrrolidin-1-yl)methyl)piperidin-1-yl)-3-fluorophenyl)ethyl)sulfonyl)-N,N-dimethylbenzenesulfonamide] | – | ≤ 2000 |
| COc1ccc(S(=O)(=O)Nc2ccccc2N2CCC3(CC2)CN(C)c2cc(F)ccc23)cc1 [Compound A-252, N-(2-{6-fluoro-1-methyl-1,2-dihydrospiro[indole-3,4′-piperidin]-1′-yl}phenyl)-4-methoxybenzene-1-sulfonamide] | ≤ 2000 | – |
| CN(C)S(=N)(=O)c1ccc(S(=O)(=O)Nc2cccc(F)c2N2CCC(CN3CCOCC3(C)C)CC2)cc1 (stereo not drawn) [Compound A-867, 4-[(2-{4-[(3,3-dimethylmorpholin-4-yl)methyl]piperidin-1-yl}-3-fluorophenyl)sulfamoyl]-N,N-dimethylbenzene-1-sulfonoimidamide] | ≤ 2000 | – |
| CC(C(=O)N1CCN(c2ccccc2NS(=O)(=O)c2ccc(S(=O)(=O)N(C)C)cc2)CC1)C(C)(C)C (stereo not drawn) [Compound A-428, N1,N1-dimethyl-N4-{2-[4-(2,3,3-trimethylbutanoyl)piperazin-1-yl]phenyl}benzene-1,4-disulfonamide] | ≤ 2000 | – |
| CN(C)C(c1ccc(S(=O)(=O)Nc2ccccc2N2CCC(c3ccc(Cl)cc3F)CC2)cc1)C(F)(F)F (stereo not drawn) [Compound A-222, N-{2-[4-(4-chloro-2-fluorophenyl)piperidin-1-yl]phenyl}-4-[1-(dimethylamino)-2,2,2-trifluoroethyl]benzene-1-sulfonamide] | ≤ 2000 | – |
| CS(=O)(=O)c1ccc(S(=O)(=O)Nc2ccccc2N2CCC3(CC2)COc2cc(F)ccc23)cc1 [Compound A-319, N-(2-{6-fluoro-2H-spiro[1-benzofuran-3,4′-piperidin]-1′-yl}phenyl)-4-methanesulfonylbenzene-1-sulfonamide] | ≤ 2000 | – |
| CN(C)S(=O)(=O)c1ccc(S(=O)(=O)Nc2ccccc2N2CCC3(CC2)COc2cc(F)ccc23)cc1 [Compound A-253, N4-(2-{6-fluoro-2H-spiro[1-benzofuran-3,4′-piperidin]-1′-yl}phenyl)-N1,N1-dimethylbenzene-1,4-disulfonamide] | ≤ 2000 | – |
| CC(c1cccc(F)c1N1CCC(C)(C(F)F)CC1)S(=O)(=O)c1ccc(S(=O)(=O)N(C)C)cc1 (single isomer, unassigned) [Compound A-925, 4-((1-(2-(4-(difluoromethyl)-4-methylpiperidin-1-yl)-3-fluorophenyl)ethyl)sulfonyl)-N,N-dimethylbenzenesulfonamide] | ≤ 2000 | – |
| C[C@@H]1CN(CC2CCN(c3c(F)cccc3NS(=O)(=O)c3ccc(S(=N)(=O)N(C)C)cc3)CC2)C[C@H](C)O1 (single isomer, unassigned) [Compound A-810, Rel-N-(2-(4-((2,6-dimethylmorpholino)methyl)piperidin-1-yl)-3-fluorophenyl)-4-(N,N-dimethylsulfamidimidoyl)benzenesulfonamide] | ≤ 2000 | – |
| COC(=O)NC1(C)CCN(c2c(F)cccc2NS(=O)(=O)c2ccc(S(=O)(=O)N(C)C)cc2)CC1 [Compound A-825, methyl N-(1-{2-[4-(dimethylsulfamoyl)benzenesulfonamido]-6-fluorophenyl}-4-methylpiperidin-4-yl)carbamate] | ≤ 2000 | – |
